Results on 28 compounds are retold here after PubChem BioAssay AID330 (DTP/NCI, 2004).

The assay relates to P388 leukemia ip, CD2F1 mice, survival T/C. In words: NCI In Vivo Anticancer Drug Screen. Data for tumor model P388 Leukemia (intraperitoneal) in CD2F1 (CDF1) mice. The note with it: endpoint: median survival time, higher = longer survival. In outline: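 Mice carrying the transplanted tumor received test compound or vehicle. Survival was recorded in each group, and the value is the treated-group measurement divided by that of the vehicle-treated control group.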

Setting [1] is: dose: 50.0 mg/kg/injection, schedule: Q01DX005 (ip), vehicle: Klucel (hydroxypropylcellulose) (HPC).
The mark [2] stands for this setting: dose: 100.0 mg/kg/injection, schedule: Q01DX005 (ip), vehicle: Klucel (hydroxypropylcellulose) (HPC).
Setting [3] is: dose: 100.0 mg/kg/injection, schedule: Q04DX003 (ip), vehicle: saline with Tween-80.
[4] abbreviates: dose: 200.0 mg/kg/injection, schedule: Q04DX003 (ip), vehicle: saline with Tween-80.
The mark [5] stands for this setting: dose: 400.0 mg/kg/injection, schedule: Q04DX003 (ip), vehicle: saline with Tween-80.
Where [6] appears, read: dose: 12.5 mg/kg/injection, schedule: Q01DX009 (ip), vehicle: saline.
Where [7] appears, read: dose: 25.0 mg/kg/injection, schedule: Q01DX009 (ip), vehicle: saline.
[8] abbreviates: dose: 50.0 mg/kg/injection, schedule: Q01DX009 (ip), vehicle: saline.
The mark [9] stands for this setting: dose: 60.0 mg/kg/injection, schedule: Q01DX005 (ip), vehicle: saline with Tween-80.
[10] abbreviates: dose: 120.0 mg/kg/injection, schedule: Q01DX005 (ip), vehicle: saline with Tween-80.
Setting [11] is: dose: 240.0 mg/kg/injection, schedule: Q01DX005 (ip), vehicle: saline with Tween-80.
Where [12] appears, read: dose: 50.0 mg/kg/injection, schedule: Q01DX009 (ip), vehicle: saline with Tween-80.
Where [13] appears, read: dose: 100.0 mg/kg/injection, schedule: Q01DX009 (ip), vehicle: saline with Tween-80.
Setting [14] is: dose: 200.0 mg/kg/injection, schedule: Q01DX009 (ip), vehicle: saline with Tween-80.
The mark [15] stands for this setting: dose: 25.0 mg/kg/injection, schedule: Q01DX009 (ip), vehicle: saline with Tween-80.
[16] abbreviates: dose: 50.0 mg/kg/injection, schedule: Q01DX005 (ip), vehicle: saline.
Setting [17] is: dose: 100.0 mg/kg/injection, schedule: Q01DX005 (ip), vehicle: saline.
[18] abbreviates: dose: 200.0 mg/kg/injection, schedule: Q01DX005 (ip), vehicle: saline.

Structures are written as SMILES. Several values for one entry are separate records, joined by “and”; a condition that tells them apart may be missing. Equal values may be shown once. Toxic doses and inconclusive results are not listed.

On to `COc1ccc(N2C(=O)CC(c3cc(OC)c(OC)c(OC)c3)CC2=O)cc1`, for which the T/C was 94 % of control under setting [1]; 89 % of control under setting [2]; 90 % of control (dose: 200.0 mg/kg/injection, schedule: Q01DX005 (ip), vehicle: Klucel (hydroxypropylcellulose) (HPC)).

Take `CCN(CC)Cc1cc(C)c(O)c(N=Nc2cc(OC)c(N=Nc3ccc([N+](=O)[O-])cc3)cc2OC)c1C`: the T/C reads like this: under setting [3], 91 % of control; under setting [4], 94 % of control; under setting [5], 94 % of control.

As for `C1CC[N+]2(CC1)CCCCC2`, the T/C reads like this: (dose: 6.25 mg/kg/injection, schedule: Q01DX009 (ip), vehicle: saline) 100 % of control; under setting [6], 100 % of control; under setting [7], 108 % of control; under setting [8], 98 % of control.

For the compound `CC(CC(=O)c1ccccc1)=NCCN=C(C)CC(=O)c1ccccc1.[Cl][Sn][Cl]`, the T/C by setting is: (dose: 100.0 mg/kg/injection, schedule: Q01DX001 (ip), vehicle: Klucel (hydroxypropylcellulose) (HPC)) 97 % of control; (dose: 200.0 mg/kg/injection, schedule: Q01DX001 (ip), vehicle: Klucel (hydroxypropylcellulose) (HPC)) 102 % of control; (dose: 400.0 mg/kg/injection, schedule: Q01DX001 (ip), vehicle: Klucel (hydroxypropylcellulose) (HPC)) 101 % of control.

Regarding `Nc1nc(NCCCc2ccccc2)c(N=Nc2ccccc2)c(=O)[nH]1`, the T/C under setting [9] is 105 % of control, the T/C under setting [10] was 105 % of control and the T/C under setting [11] was 105 % of control.

As to `COc1ccc2c(c1)C(=O)CC(COS(=O)(=O)c1ccc(C)cc1)C2` (centres undefined), the T/C was 107 % of control under setting [12], 101 % of control under setting [13] and 99 % of control under setting [14].

Regarding `COc1cc(/C=N\N=c2\sc3ccccc3n2C)ccc1OCCO`, the T/C was 92 % of control under setting [9], 91 % of control under setting [10] and 91 % of control under setting [11].

With `Nc1nc(-c2ccccn2)cc2ccc(Cl)cc12`, the T/C is 101 % of control (dose: 100.0 mg/kg/injection, schedule: Q01DX001 (ip), vehicle: saline with Tween-80); 104 % of control (dose: 200.0 mg/kg/injection, schedule: Q01DX001 (ip), vehicle: saline with Tween-80); 104 % of control (dose: 400.0 mg/kg/injection, schedule: Q01DX001 (ip), vehicle: saline with Tween-80).

On to `COc1ccc(OC)c2c1CCC(O)(C#N)C2` (centres undefined), for which the T/C reads like this: (dose: 3.13 mg/kg/injection, schedule: Q01DX009 (ip), vehicle: other) 100 % of control and 101 % of control; (dose: 6.25 mg/kg/injection, schedule: Q01DX009 (ip), vehicle: other) 100 % of control and 102 % of control; (dose: 12.5 mg/kg/injection, schedule: Q01DX009 (ip), vehicle: other) 101 % of control.

Consider `COc1ccccc1/C=C(\C(=O)O)c1ccccc1`, for which the T/C runs as follows: under setting [1], 96 % of control; under setting [2], 91 % of control.

Consider `CCC1S(=O)(=O)OCCOS1(=O)=O`, for which the T/C was 106 % of control (dose: 7.5 mg/kg/injection, schedule: Q01DX005 (ip), vehicle: Klucel (hydroxypropylcellulose) (HPC)); 106 % of control and 107 % of control and 116 % of control (dose: 15.0 mg/kg/injection, schedule: Q01DX005 (ip), vehicle: Klucel (hydroxypropylcellulose) (HPC)); 109 % of control and 112 % of control and 120 % of control (dose: 30.0 mg/kg/injection, schedule: Q01DX005 (ip), vehicle: Klucel (hydroxypropylcellulose) (HPC)).

With `CC1(C)COC2(C)ON12` (centres undefined), the T/C was 106 % of control (dose: 50.0 mg/kg/injection, schedule: Q01DX005 (ip), vehicle: saline with Tween-80); 117 % of control (dose: 100.0 mg/kg/injection, schedule: Q01DX005 (ip), vehicle: saline with Tween-80); 113 % of control (dose: 200.0 mg/kg/injection, schedule: Q01DX005 (ip), vehicle: saline with Tween-80).

For the compound `N=C(N)c1ccc2cc(/C=C/c3cc4ccc(C(=N)N)cc4o3)[nH]c2c1`, the T/C (dose: 50.0 mg/kg/injection, schedule: Q04DX003 (ip), vehicle: saline) was 157 % of control and the T/C (dose: 50.0 mg/kg/injection, schedule: Q04DX003 (ip), vehicle: suspension in saline) was 208 % of control.

As for `CCCCCCCCCCCCCCCC[N+](C)(C)CCNC(C)=O`, the T/C is 100 % of control (dose: 12.5 mg/kg/injection, schedule: Q01DX009 (ip), vehicle: saline with Tween-80); 102 % of control under setting [15]; 90 % of control under setting [12].

Take `O=c1[nH]c2c(=O)[nH][nH]c(=O)c2[nH]c1=O`: the T/C is 103 % of control (dose: 15.0 mg/kg/injection, schedule: Q01DX005 (ip), vehicle: saline with Tween-80); 100 % of control (dose: 30.0 mg/kg/injection, schedule: Q01DX005 (ip), vehicle: saline with Tween-80); 99 % of control and 105 % of control under setting [9].

Turning to `Cn1c[n+](C)nn1`, the T/C was 91 % of control under setting [6], 97 % of control under setting [7] and 97 % of control under setting [8].

In the case of `C/C=C1/CN2CCC34c5ccccc5N(C)C23C2CC1C4(C(=O)OC)C(OC(C)=O)O2` (centres undefined), the T/C (dose: 9.25 mg/kg/injection, schedule: Q01DX005 (ip), vehicle: saline + Tween-80 + alcohol) is 96 % of control; the T/C (dose: 18.5 mg/kg/injection, schedule: Q01DX005 (ip), vehicle: saline + Tween-80 + alcohol) is 106 % of control; the T/C (dose: 37.0 mg/kg/injection, schedule: Q01DX005 (ip), vehicle: saline + Tween-80 + alcohol) is 112 % of control; the T/C (dose: 74.0 mg/kg/injection, schedule: Q01DX005 (ip), vehicle: saline + Tween-80 + alcohol) was 100 % of control.

Turning to `Cc1c(Cl)c(C)c(Cl)c(O)c1Cl`, the T/C by setting is: under setting [3], 104 % of control; under setting [4], 100 % of control; under setting [5], 104 % of control.

For `O=C1OCCC1C(=O)C(O)(C(F)(F)F)C(F)(F)F` (centres undefined), the T/C (dose: 50.0 mg/kg/injection, schedule: Q01DX001 (ip), vehicle: other) is 100 % of control; the T/C (dose: 100.0 mg/kg/injection, schedule: Q01DX001 (ip), vehicle: other) is 95 % of control; the T/C (dose: 200.0 mg/kg/injection, schedule: Q01DX001 (ip), vehicle: other) was 91 % of control.

Regarding `CC(=O)OCC1OC(n2nc(/C=C/c3ccco3)c(=O)n(-c3ccccc3)c2=S)C(OC(C)=O)C(OC(C)=O)C1OC(C)=O` (centres undefined), the T/C reads like this: under setting [3], 107 % of control; under setting [4], 100 % of control; under setting [5], 101 % of control.

As for `CCCCCCCCS(=O)(=O)NC`, the T/C is, setting by setting: under setting [7], 117 % of control; under setting [8], 102 % of control; (dose: 200.0 mg/kg/injection, schedule: Q01DX009 (ip), vehicle: saline) 102 % of control.

For the compound `CC12CC3(C)C(Br)C3CC1O2` (centres undefined), the T/C reads like this: (dose: 44.5 mg/kg/injection, schedule: Q01DX005 (ip), vehicle: saline with Tween-80) 97 % of control; (dose: 89.0 mg/kg/injection, schedule: Q01DX005 (ip), vehicle: saline with Tween-80) 99 % of control; (dose: 178.0 mg/kg/injection, schedule: Q01DX005 (ip), vehicle: saline with Tween-80) 99 % of control.

As to `CCOC(OCC)C(C)(C)CNC`, the T/C was 109 % of control (dose: 100.0 mg/kg/injection, schedule: Q01DX001 (ip), vehicle: saline sonified) and 113 % of control (dose: 200.0 mg/kg/injection, schedule: Q01DX001 (ip), vehicle: saline sonified).

`CCC(C)(F)C(N)C(=O)O` (centres undefined): the T/C was 100 % of control under setting [16], 97 % of control under setting [17] and 100 % of control under setting [18].

In the case of `CNc1onc(C)c1C`, the T/C is 103 % of control under setting [12], 105 % of control under setting [13] and 100 % of control under setting [14].

Consider `COCCCOC(=O)NCCCCC(N)C(=O)O` (centres undefined), for which the T/C reads like this: under setting [16], 98 % of control; under setting [17], 106 % of control; under setting [18], 100 % of control.

`CCOC(CN=Cc1cc(C)c2sc3ccccc3c2c1C)OCC`: the T/C runs as follows: under setting [15], 110 % of control; under setting [12], 103 % of control; under setting [13], 108 % of control; under setting [14], 111 % of control.

As for `CN1C2CCC1C(O)C(c1ccc(Cl)cc1)C2` (centres undefined), the T/C by setting is: (dose: 25.0 mg/kg/injection, schedule: Q01DX005 (ip), vehicle: Klucel (hydroxypropylcellulose) (HPC)) 100 % of control; under setting [1], 100 % of control; under setting [2], 91 % of control.
